Consider twelve compounds from BindingDB's records for doi:10.1016/j.bmcl.2005.05.116 (Merck Frosst Canada, 2005).

Assay in all cases: Caspase Inhibition Assay
One assay deals with Caspase-8 (Homo sapiens, UniProt Q14790). On the procedure: (§1) The substrate peptides terminating in AMC are processed by caspases with or without inhibitors, and the accumulation of AMC was assessed with a Cytofluor fluorescent plate reader at excitation and emission wavelengths of 380 and 460 nm. Compounds were tested, and full IC50 curves were run for all compounds expressing measurable inhibitory activity.

The next assay deals with T1, Caspase-7 (Homo sapiens, UniProt P55210).
T1 sequence (P55210 whole entry): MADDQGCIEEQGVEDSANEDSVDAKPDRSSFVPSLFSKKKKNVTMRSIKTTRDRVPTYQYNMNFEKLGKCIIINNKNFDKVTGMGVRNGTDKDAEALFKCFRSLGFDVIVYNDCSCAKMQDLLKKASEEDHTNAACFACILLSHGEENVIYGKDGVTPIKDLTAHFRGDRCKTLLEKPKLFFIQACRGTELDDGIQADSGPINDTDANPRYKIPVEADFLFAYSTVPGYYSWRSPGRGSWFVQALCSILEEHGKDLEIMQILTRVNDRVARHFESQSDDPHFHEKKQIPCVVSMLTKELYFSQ
Here is the method: as §1

The next assay concerns the target T2, Caspase-3 (Homo sapiens, UniProt P42574).
T2 sequence (P42574 whole entry): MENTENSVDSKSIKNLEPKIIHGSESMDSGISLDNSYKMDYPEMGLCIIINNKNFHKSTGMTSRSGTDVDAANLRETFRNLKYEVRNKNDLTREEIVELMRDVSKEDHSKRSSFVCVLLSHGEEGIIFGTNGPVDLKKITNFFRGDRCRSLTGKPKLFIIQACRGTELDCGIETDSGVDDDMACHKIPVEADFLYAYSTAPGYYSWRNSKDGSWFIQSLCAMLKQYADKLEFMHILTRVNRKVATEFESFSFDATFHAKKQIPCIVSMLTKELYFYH
On the procedure: as §1

In the next assay the target is T3, Caspase-1 (Homo sapiens, UniProt P29466).
T3 sequence (P29466 whole entry): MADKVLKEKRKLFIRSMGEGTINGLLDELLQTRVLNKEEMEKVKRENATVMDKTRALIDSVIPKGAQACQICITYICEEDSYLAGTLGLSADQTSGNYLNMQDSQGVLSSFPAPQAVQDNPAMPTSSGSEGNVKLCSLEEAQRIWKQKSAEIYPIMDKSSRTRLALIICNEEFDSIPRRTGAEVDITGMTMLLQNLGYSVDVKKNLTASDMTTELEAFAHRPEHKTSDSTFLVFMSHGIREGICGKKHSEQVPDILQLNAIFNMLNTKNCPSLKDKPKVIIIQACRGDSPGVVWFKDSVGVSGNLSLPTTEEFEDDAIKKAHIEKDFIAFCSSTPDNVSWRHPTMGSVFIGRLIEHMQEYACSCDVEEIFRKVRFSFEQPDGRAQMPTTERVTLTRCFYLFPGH
On the procedure:
as §1

Chain of Caspase-8 (Q14790 217-374 limits assumed): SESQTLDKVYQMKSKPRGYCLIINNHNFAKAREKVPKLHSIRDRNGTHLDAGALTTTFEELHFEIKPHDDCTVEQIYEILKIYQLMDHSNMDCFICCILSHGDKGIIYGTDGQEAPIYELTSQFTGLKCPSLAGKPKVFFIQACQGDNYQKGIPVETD
Chain of Caspase-8 (Q14790 385-479 limits assumed): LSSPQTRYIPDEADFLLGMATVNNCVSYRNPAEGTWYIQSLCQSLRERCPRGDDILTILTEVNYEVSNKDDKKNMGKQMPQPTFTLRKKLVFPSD

Broadly, the IC50 is the concentration needed to halve the response being measured. Lower therefore signals greater potency. For `COc1ccc(I)cc1C(O)C(=O)N[C@H](C(=O)N[C@@H](CC(=O)O)C(=O)CSCc1ccccc1)C(C)C` (stereo partly drawn) [(3S)-5-(benzylsulfanyl)-3-[(2S)-2-[2-hydroxy-2-(5-iodo-2-methoxyphenyl)acetamido]-3-methylbutanamido]-4-oxopentanoic acid], the IC50 on Caspase-8 worked out at 0.098 µM; against Caspase-7, 0.135 µM; against Caspase-3, 0.016 µM; at Caspase-1 it was 0.675 µM.
In the case of `COc1ccc(C(C)=O)cc1C(O)C(=O)N[C@H](C(=O)N[C@@H](CC(=O)O)C(=O)CSCc1ccccc1)C(C)C` (stereo partly drawn) [(3S)-5-(benzylsulfanyl)-3-[(2S)-2-[2-(5-acetyl-2-methoxyphenyl)-2-hydroxyacetamido]-3-methylbutanamido]-4-oxopentanoic acid], the IC50 on Caspase-8 is 0.635 µM; at Caspase-7, 0.29 µM; at Caspase-3 it was 0.016 µM; against Caspase-1, 4.85 µM.
In the case of `C#CC[C@H](C(=O)N[C@H](C(=O)N[C@@H](CC(=O)O)C(=O)CSCc1ccccc1)C(C)C)c1cc(Br)ccc1OC` [(3S)-5-(benzylsulfanyl)-3-[(2S)-2-[(2S)-2-(5-bromo-2-methoxyphenyl)pent-4-ynamido]-3-methylbutanamido]-4-oxopentanoic acid], the IC50 is 4.47 µM against Caspase-8; 3.62 µM on Caspase-7; 0.341 µM against Caspase-3 (pH 7, 37 °C); greater than 10 µM at Caspase-1.
As for `COc1ccc(Br)cc1C1(C(=O)N[C@H](C(=O)N[C@@H](CC(=O)O)C(=O)CSCc2ccccc2)C(C)C)CC1` [(3S)-5-(benzylsulfanyl)-3-[(2S)-2-{[1-(5-bromo-2-methoxyphenyl)cyclopropyl]formamido}-3-methylbutanamido]-4-oxopentanoic acid], the concentration for half-maximal inhibition (IC50) against Caspase-8 is greater than 10 µM; on Caspase-7, greater than 10 µM; against Caspase-3 (pH 7, 37 °C), 0.323 µM; at Caspase-1 it was greater than 10 µM.
As to `COc1ccc(Br)cc1[C@H](C)C(=O)N[C@H](C(=O)N[C@@H](CC(=O)O)C(=O)CSCc1ccccc1)C(C)C` [(3S)-5-(benzylsulfanyl)-3-[(2S)-2-[(2S)-2-(5-bromo-2-methoxyphenyl)propanamido]-3-methylbutanamido]-4-oxopentanoic acid], the IC50 was 5.38 µM against Caspase-8; 3.69 µM against Caspase-7; 0.176 µM against Caspase-3 (pH 7, 37 °C); greater than 10 µM on Caspase-1.
For the compound `COc1ccc(Br)cc1[C@@H](C(=O)N[C@H](C(=O)N[C@@H](CC(=O)O)C(=O)CSCc1ccccc1)C(C)C)C(C)C` [(3S)-5-(benzylsulfanyl)-3-[(2S)-2-[(2S)-2-(5-bromo-2-methoxyphenyl)-3-methylbutanamido]-3-methylbutanamido]-4-oxopentanoic acid], the IC50 against Caspase-8 was 1.32 µM; against Caspase-7 it was greater than 10 µM; against Caspase-3 (pH 7, 37 °C), 9.44 µM; at Caspase-1, greater than 10 µM.
In the case of `COc1ccc(Br)cc1[C@H](Cc1ccccc1)C(=O)N[C@H](C(=O)N[C@@H](CC(=O)O)C(=O)CSCc1ccccc1)C(C)C` [(3S)-5-(benzylsulfanyl)-3-[(2S)-2-[(2S)-2-(5-bromo-2-methoxyphenyl)-3-phenylpropanamido]-3-methylbutanamido]-4-oxopentanoic acid], the half-maximal inhibitory concentration (IC50) at Caspase-8 stood at 5.83 µM; at Caspase-7, 4.2 µM; on Caspase-3 (pH 7, 37 °C) it was 0.181 µM; against Caspase-1, 5.81 µM.
As to `CCC[C@H](C(=O)N[C@H](C(=O)N[C@@H](CC(=O)O)C(=O)CSCc1ccccc1)C(C)C)c1cc(Br)ccc1OC` [(3S)-5-(benzylsulfanyl)-3-[(2S)-2-[(2S)-2-(5-bromo-2-methoxyphenyl)pentanamido]-3-methylbutanamido]-4-oxopentanoic acid], the concentration for half-maximal inhibition (IC50) at Caspase-8 is 4.5 µM; against Caspase-7 it was 5.3 µM; against Caspase-3 (pH 7, 37 °C), 0.274 µM; against Caspase-1, greater than 10 µM.
As for `COc1ccc(OC)c(C(O)C(=O)N[C@H](C(=O)N[C@@H](CC(=O)O)C(=O)CSCc2ccccc2)C(C)C)c1` (stereo partly drawn) [(3S)-5-(benzylsulfanyl)-3-[(2S)-2-[2-(2,5-dimethoxyphenyl)-2-hydroxyacetamido]-3-methylbutanamido]-4-oxopentanoic acid], the IC50 against Caspase-8 came out at 0.975 µM; against Caspase-7 it was 0.545 µM; at Caspase-3, 0.029 µM; at Caspase-1 it was 4.49 µM.
With `COc1ccc(-c2nc(C)no2)cc1C(O)C(=O)N[C@H](C(=O)N[C@@H](CC(=O)O)C(=O)CSCc1ccccc1)C(C)C` (stereo partly drawn) [(3S)-5-(benzylsulfanyl)-3-[(2S)-2-{2-hydroxy-2-[2-methoxy-5-(3-methyl-1,2,4-oxadiazol-5-yl)phenyl]acetamido}-3-methylbutanamido]-4-oxopentanoic acid], the IC50 against Caspase-8 is 0.28 µM; at Caspase-7, 0.063 µM; on Caspase-3 it was 0.012 µM; against Caspase-1, 2.46 µM.
As to `C=CC[C@H](C(=O)N[C@H](C(=O)N[C@@H](CC(=O)O)C(=O)CSCc1ccccc1)C(C)C)c1cc(Br)ccc1OC` [(3S)-5-(benzylsulfanyl)-3-[(2S)-2-[(2S)-2-(5-bromo-2-methoxyphenyl)pent-4-enamido]-3-methylbutanamido]-4-oxopentanoic acid], the IC50 against Caspase-8 is 1.62 µM; at Caspase-7, 2.21 µM; on Caspase-3 (pH 7, 37 °C), 0.08 µM; against Caspase-1 it was 6.51 µM.
In the case of `COc1ccc(Br)cc1C(O)C(=O)N[C@H](C(=O)N[C@@H](CC(=O)O)C(=O)CSCc1ccccc1)C(C)C` (stereo partly drawn) [(3S)-5-(benzylsulfanyl)-3-[(2S)-2-[2-(5-bromo-2-methoxyphenyl)-2-hydroxyacetamido]-3-methylbutanamido]-4-oxopentanoic acid], the IC50 against Caspase-8 turned out to be 0.104 µM; on Caspase-7, 0.091 µM; at Caspase-3, 0.005 µM; against Caspase-1 it was 1.54 µM.
